{"source": "paper PMC6911004", "about": "“Fragment-based screening identifies molecules targeting the substrate-binding ankyrin repeat domains of tankyrase” (Scientific Reports, 2019)", "type_in_all_cases": "binding", "key": {"[1]": {"target": "T1, TNKS2 ARC4 (488–649) (Homo sapiens, UniProt Q9H2K2)", "T1 construct": "The cell was filled with TNKS2 ARC4 (488–649); His6-GST (cleaved yes); made in house; host or cells: E. coli BL21-CodonPlus (DE3)-RIL", "T1 sequence (Q9H2K2 488-649)": "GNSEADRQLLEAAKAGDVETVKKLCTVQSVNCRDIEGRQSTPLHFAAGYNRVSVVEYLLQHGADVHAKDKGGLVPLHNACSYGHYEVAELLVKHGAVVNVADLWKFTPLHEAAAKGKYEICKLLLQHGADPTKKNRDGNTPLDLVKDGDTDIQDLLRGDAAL", "assay": "Protein-observed 1H-15N HSQC NMR titration (chemical shift perturbation)", "conditions": "for 15N NMR / 15N HSQC chemical shift perturbations (CSPs): 15N-labelled TNKS2 ARC4", "excerpt": "We next tested validated hits from both the DSF and NMR screens against TNKS2 ARC4 using protein-observed NMR. This included 16 compounds in total: 14 fragments identified by DSF and confirmed to bind TNKS2 ARC5 by both relaxation-edited and waterLOGSY methods and two unique fragments identified by NMR and confirmed to bind TNKS2 ARC4 by both ligand-observed NMR methods. We used the 3BP2 TBM peptide as a positive control. To directly identify fragment binding sites on the ARC, we performed a full backbone and partial side-chain assignment of TNKS2 ARC4, doubly labelled with ^15N and ^13C isotopes. The assignment details have been reported elsewhere. […] The different binding regimes may distinguish primary interaction hotspots that are engaged robustly when a peptide is first recruited (slow exchange) from secondary binding sites in the ARC that become occupied once primary binding hotspots are engaged; these may be more dynamic (fast exchange).\nWe then titrated compounds against ^15N-labelled TNKS2 ARC4, initially at protein:compound ratios of 1:1 and 1:3. […] We confirmed that the CSPs were not caused by pH changes during the titration by measuring the pH of the peptide and fragment stocks (at 3 mM) in assay buffer. Consistent with TBM-competitive binding of fragments 3 and 5, we identified several peaks that shifted in both fragment and 3BP2 TBM peptide titrations. […] However, the solubility of fragments 3 and 5 in assay buffer limited the maximum concentration achievable, and so complete saturation was not reached. This confounded affinity measurements and more extensive analyses of the fragment binding sites by protein-observed NMR.\n^15N-labelled TNKS2 ARC4 (488–649) (300 μM final concentration; 5 μL of 3 mM stock) in NMR buffer (45 μL, 25 mM HEPES-NaOH pH 7.5, 100 mM NaCl, 1 mM TCEP, 10% D2O) was used as the baseline sample. Peptide titration samples (Table 6) were prepared by diluting the 16-mer 3BP2 peptide with NMR buffer (45 μL), then adding TNKS2 ARC4 (300 μM final concentration; 5 μL of 3 mM stock). Separate samples were prepared for each concentration point. Fragment titration samples (Table 7) were prepared by diluting fragments in NMR buffer (25 mM HEPES-NaOH pH 7.5, 100 mM NaCl, 1 mM TCEP, 10% D2O) and backfilling with DMSO to keep a constant DMSO concentration of 5%. ^15N-labelled TNKS2 ARC4 (300 μM final concentration; 5 μL of 3 mM stock) was added. Protein with 5% DMSO alone was used as the baseline. Separate samples were prepared for each concentration point. ^1H-^15N HSQC spectra were acquired over 3 h, with 64 scans and a spectrum width of 16.00 ppm for ^1H and 29.00 ppm for ^15N. The pH of the peptide and fragment stocks (at 3 mM) was confirmed to exclude the possibility that peak shifts were due to changes in pH during the titration.\nPeaks that shifted were picked manually in each spectrum. The chemical shifts for each peak were measured and exported into Microsoft Excel, where the change in chemical shift from baseline was calculated for hydrogen and nitrogen shifts. The average Euclidean distance shifted (d) was then calculated using Eq. 2, weighting the different nuclei:2 d=√{1/2[δH2+(α.δN2)]},whereα=0.14\nValues of d were plotted against ligand concentration in GraphPad Prism, and fitted with Eq. 3:3 Δδobs=Δδmax{([P]t+[L]t+Kd)−[([P]t+[L]t+Kd)^2−4[P]t[L]t]^1/2/2[P]t\nKd values were calculated for each peak that shifted individually. The mean of all shifting peaks was then calculated to give an apparent Kd value."}, "[2]": {"target": "T2, TNKS2 ARC4 (Homo sapiens, UniProt Q9H2K2)", "T2 construct": "The cell was filled with TNKS2 ARC4 (488–649); His6-GST; made in house; host or cells: E. coli", "T2 sequence (Q9H2K2 488-649)": "T1 sequence (Q9H2K2 488-649)", "assay": "WaterLOGSY NMR assay", "conditions": "for waterLOGSY: wild-type TNKS2 ARC4 20 μM, negative NOE = binder", "method": "(§1) We next sought close structural analogues of hit fragments 3 and 5 to gain early insights into structure-activity relationships (SAR) and binding modes of hit fragments. We initially tested the analogues using both relaxation-edited and waterLOGSY NMR assays against TNKS2 ARC4 (Table 1), followed by protein-observed NMR if binding was detected in both ligand-observed NMR experiments.\nFragments were dispensed in duplicate into a 384-well plate (250 nL, 100 mM stock in DMSO). Wells were backfilled with DMSO (2.25 μL). Tankyrase ARC protein (47.5 μL in 25 mM HEPES-NaOH pH7.5, 100 mM NaCl, 2 mM TCEP, 10% D2O; 20 μM final protein concentration in the assay) was added to the samples containing protein; buffer only (47.5 μL) was added to the compound-only samples. Solutions were transferred to 1.7 mm NMR tubes using a Gilson liquid handling system. ^1H NMR spectra were recorded, with the DMSO signal dampened. The bulk water signal at 4.7 ppm was selectively inverted. Data were processed using Bruker Topspin 3.14[66]."}, "[3]": {"target": "T2, TNKS2 ARC4", "assay": "T2 relaxation-edited ligand-observed NMR assay", "conditions": "for T2 relaxation-edited: competition with 3BP2 TBM peptide: 3BP2 16-mer peptide 100 μM", "method": "as §1\nFragments were dispensed in duplicate into a 384-well plate (250 nL, 100 mM stock in DMSO). Wells were backfilled with DMSO (2.25 μL). Tankyrase ARC protein (47.5 μL in 25 mM HEPES, pH 7.5, 100 mM NaCl, 2 mM TCEP, 10% D2O; 20 μM final protein concentration in the assay) was added to the ‘protein’ samples; buffer only (47.5 μL) was added to the ‘compound-only’ samples. Solutions were transferred to 1.7 mm NMR tubes using a Gilson liquid handling system. ^1H NMR spectra were recorded, with the DMSO and water signals dampened. A relaxation spin filter was applied at 400 ms[65]. Data were processed using Bruker Topspin 3.14. Lines were broadened with LB = 3.0, and the baseline was corrected between 6.0–10.0 ppm. The average integral for all peaks between 6.0–10.0 ppm was calculated, and the difference between compound-only and compound-plus-protein samples was compared. A reduction in signal integrals of ≥15% was classified as a hit. For competitive experiments, 3BP2 16-mer peptide (100 μM) was added, and the spectra were recorded and processed as above. The variability in signal reduction in the relaxation-edited experiment was previously determined as approximately ± 10% (Liu et al., unpublished observations)."}, "[4]": {"conditions": "TNKS2 ARC4 300 μM, fragment up to 4800 μM, 5% DMSO"}}, "note": "“Also recorded” adds a separate entry of the source."}
{"compound": "O=C(NCc1ccco1)c1ccc(F)cc1", "note": "[compound 3]", "values": [{"measurement": "15N NMR / 15N HSQC chemical shift perturbations (CSPs)", "setting": "[1]", "result": "significant CSPs; also recorded: substantial CSPs; also recorded: CSPs observed"}, {"measurement": "NMR Kd (apparent, mean of shifting peaks)", "setting": "[1]; [4]", "result": "no saturation"}, {"measurement": "waterLOGSY", "setting": "[2]", "result": "negative NOE; also recorded: binding"}, {"measurement": "binding to TNKS2 ARC4 by ligand-observed NMR, in words", "setting": "[3]; DSF hit validation", "result": "bound"}]}
{"compound": "LPHLQRSPPDGQSFRSW [3BP2 16-mer peptide, 16-mer TBM peptide derived from 3BP2, W added for A280, N-terminus acetylated, C-terminus amide-capped; positive control, reference compound]", "values": [{"measurement": "15N NMR / 15N HSQC chemical shift perturbations (CSPs)", "setting": "[1]", "result": "significant chemical shift perturbations"}]}
{"compound": "O=C(NCc1ccco1)c1ccc2nccnc2c1", "note": "[compound 9]", "values": [{"measurement": "15N NMR / 15N HSQC chemical shift perturbations (CSPs)", "setting": "[1]", "result": "substantial CSPs; also recorded: significant CSPs"}, {"measurement": "Kd", "setting": "[1]; TNKS2 ARC4 300 μM, fragment up to 4800 μM, 5% DMSO, read-out: NMR Kd (apparent, mean of shifting peaks)", "result": 1050, "unit": "µM"}, {"measurement": "waterLOGSY, compound alone", "setting": "[2]; no protein added", "result": "no NOE"}, {"measurement": "waterLOGSY", "setting": "[2]", "result": "one peak has negative NOE; also recorded: binding; also recorded: negative NOE signal"}, {"measurement": "T2 relaxation-edited: competition with 3BP2 TBM peptide", "setting": "[3]", "result": "competitive"}, {"measurement": "TNKS2 ARC4 binding of analogues, SAR summary in words", "setting": "[3]; relaxation-edited and waterLOGSY NMR", "result": "preserved binding"}]}
{"compound": "O=C(NCc1ccc(F)cc1)c1ccc2nccnc2c1", "note": "[compound 5]", "values": [{"measurement": "15N NMR / 15N HSQC chemical shift perturbations (CSPs)", "setting": "[1]", "result": "significant CSPs; also recorded: substantial CSPs; also recorded: CSPs observed"}, {"measurement": "NMR Kd (apparent, mean of shifting peaks)", "setting": "[1]; [4]", "result": "no saturation"}, {"measurement": "waterLOGSY: competition with 3BP2 TBM peptide", "setting": "[2]", "result": "peptide competition"}, {"measurement": "waterLOGSY", "setting": "[2]", "result": "negative NOE; also recorded: binding"}, {"measurement": "T2 relaxation-edited: competition with 3BP2 TBM peptide", "setting": "[3]", "result": "competitive"}]}
